Measurements from paper PMC11952846, “The sterol-regulating human ARV1 binds cholesterol and phospholipids through its conserved ARV1 homology domain” (The Journal of Biological Chemistry, 2025).
Residue numbers refer to the chain shown, from its start.

Experiments:
[1] = molecular target: T1, 6XHIS-ARV1-N98 E70A (Homo sapiens, UniProt Q9H2C2, E70A); test: Lipid overlay far western, site-directed mutant; type: binding; conditions: compared to the ARV1-N98 protein
T1 construct: Expressing amino-terminal 98 amino acids of ARV1; made in house; host or cells: E. coli BL21 (pET-28a(+))
How it was run: (§1)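 Immobilized lipids were exposed to 0.5 μg/ml tagged ARV1 constructs for 1 h at room temperature following BSA blocking.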

[2] = molecular target: T2, 6XHIS-ARV1-N98 D72A (Homo sapiens, UniProt Q9H2C2, D72A); test: Lipid overlay far western, site-directed mutant; type: binding; conditions: compared to the ARV1-N98 protein
T2 construct: Expressing amino-terminal 98 amino acids of ARV1; made in house; host or cells: E. coli BL21 (pET-28a(+))
How it was run: as §1

[3] = molecular target: T3, 6XHIS-ARV1-N98 N94Q (Homo sapiens, UniProt Q9H2C2, N94Q); test: Lipid overlay far western, site-directed mutant; type: binding; conditions: compared to the ARV1-N98 protein
T3 construct: Expressing amino-terminal 98 amino acids of ARV1; made in house; host or cells: E. coli BL21 (pET-28a(+))
T3 sequence (Q9H2C2 1-98 N94Q): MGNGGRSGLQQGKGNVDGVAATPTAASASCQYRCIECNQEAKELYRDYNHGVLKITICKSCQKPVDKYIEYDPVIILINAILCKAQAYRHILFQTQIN
How it was run: as §1

[4] = molecular target: T4, GST-ARV1-N98 C58/C61A (Homo sapiens, UniProt Q9H2C2, C58A/C61A); test: Liposome binding assay, site-directed mutant; conditions: PC:PL, sulfatide or PI(4)P liposomes
T4 construct: Expresses amino-terminal 98 amino acids of ARV1; made in house; host or cells: E. coli BL21 (pGEX-4T1)
T4 sequence (Q9H2C2 1-98 C58A/C61A): T3 sequence (Q9H2C2 1-98 N94Q) with C58A, C61A, Q94N
Protocol: (§2) Lyophilized lipids were reconstituted in chloroform at 10 mg/ml and stored in glass tubes with Teflon tops at −20 °C until use. One milliliter of 10 mg/ml stock was dried under a stream of nitrogen in a glass tube until a lipid cake/film was formed. The lipid cake was then rehydrated in BLT rehydration buffer (5 mM Tris/HCl, pH 7.4, containing 150 mM NaCl) to a concentration of 1 mg/ml. Lipid suspensions were subjected to three freeze/thaw cycles using a dry ice ethanol/[…] water bath to encapsulate the buffer and improve liposome formation. The suspension and lipid extruder were equilibrated to temperature for 10 min and liposomes were extruded using […] polycarbonate membranes (Avestin). Liposomes were made by mixing stock lipid PL (1 mg/ml) with PC (10 mg/ml).
(§3) Sulfatide liposomes were generated as previously described ([94]). All lipids were resuspended in organic solvents as per manufacturer’s instructions. Liposomes were prepared with mixing PC:PE:cholesterol:sulfatides (1:1:1:4) and subsequently dried down by lyophilization to obtain lipid films. Lipids were hydrated in 20 mM Tris–HCL, pH 6.8, containing 100 mM NaCl at a concentration of 1 mg/ml.
(§4) PI(4)P liposomes were generated as described by Knodler et al. ([95]), with some modifications. Briefly, liposomes were generated at a lipid concentration of 10 mg/ml. Liposomes contained PC (60%), PI (30%), PE (8%), and PI(4)P (2%). Lipid solution was dried down and resuspended in liposome buffer (20 mM Hepes–HCL, pH 7.4, containing 1 mM EDTA and 50 mM potassium acetate). Liposomes were formed by sonication on ice.
(§5) Liposomes were serial diluted in floatation buffer (100 mM NaCl, 2 mM EDTA, pH 5.5) to a final concentration of 0.1 mg/ml. Nine hundred microliters of liposome solution was placed in clear ultracentrifuge tubes and mixed with 100 μl of 0.01 μg/ml of protein. The liposome/protein solution was incubated at room temperature for 1 h with occasional shaking. An initial 100 μl of liposome/protein solution (liposomes) was removed and the remaining 900 μl was centrifuged at 50,000g for 20 min at 4 °C. The pellet was resuspended in 800 μl of fresh floatation buffer, centrifuged as above, and 800 μl of supernatant was removed (wash 1). This was repeated a second time and again 800 μl of supernatant was removed (wash 2). The final pellet was resuspended in 100 μl of floatation buffer plus SDS treatment buffer (pellet). Thirty microliters of each fraction was run on a 15% SDS-PAGE gel and probed with an anti-GST monoclonal antibody at a 1:1500 dilution.

[5] = molecular target: T5, GST-ARV1-N98 N94A (Homo sapiens, UniProt Q9H2C2, N94A); test: Liposome binding assay, site-directed mutant; conditions: PC:PL, sulfatide or PI(4)P liposomes
T5 construct: Expresses amino-terminal 98 amino acids of ARV1; made in house; host or cells: E. coli BL21 (pGEX-4T1)
T5 sequence (Q9H2C2 1-98 N94A): T3 sequence (Q9H2C2 1-98 N94Q) with Q94A
Protocol: as §2, §3, §4, §5

[6] = molecular target: T6, GST-ARV1-N98 K67A (Homo sapiens, UniProt Q9H2C2, K67A); test: Liposome binding assay, site-directed mutant; conditions: PC:PL, sulfatide liposomes
T6 construct: Expresses amino-terminal 98 amino acids of ARV1; made in house; host or cells: E. coli BL21 (pGEX-4T1)
T6 sequence (Q9H2C2 1-98 K67A): T3 sequence (Q9H2C2 1-98 N94Q) with K67A, Q94N
Protocol: as §2, §3, §4, §5

[7] = molecular target: T7, 6XHIS-ARV1-N98 K54/K59A (Homo sapiens, UniProt Q9H2C2, K54A/K59A); test: Lipid overlay far western, site-directed mutant; type: binding; conditions: compared to the ARV1-N98 protein
T7 construct: Expressing amino-terminal 98 amino acids of ARV1; made in house; host or cells: E. coli BL21 (pET-28a(+))
T7 sequence (Q9H2C2 1-98 K54A/K59A): T3 sequence (Q9H2C2 1-98 N94Q) with K54A, K59A, Q94N
How it was run: as §1

[8] = molecular target: T8, 6XHIS-ARV1-N98 C58/C61A (Homo sapiens, UniProt Q9H2C2, C58A/C61A); test: Lipid overlay far western, site-directed mutant; type: binding; conditions: compared to the ARV1-N98 protein
T8 construct: Expressing amino-terminal 98 amino acids of ARV1; made in house; host or cells: E. coli BL21 (pET-28a(+))
T8 sequence (Q9H2C2 1-98 C58A/C61A): T3 sequence (Q9H2C2 1-98 N94Q) with C58A, C61A, Q94N
How it was run: as §1

[9] = molecular target: T9, GST-ARV1-N70 (Homo sapiens, UniProt Q9H2C2); test: Lipid overlay far western, truncation; type: binding; conditions: compared to ARV1-N98
T9 construct: Expresses amino-terminal 70 amino acids of ARV1; made in house; host or cells: E. coli BL21 (pGEX-4T1)
T9 sequence (Q9H2C2 1-70): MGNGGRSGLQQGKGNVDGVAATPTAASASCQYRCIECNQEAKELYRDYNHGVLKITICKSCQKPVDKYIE
How it was run: as §1

[10] = molecular target: T10, GST-ARV1-N98 N94Q (Homo sapiens, UniProt Q9H2C2, N94Q); test: Liposome binding assay, site-directed mutant; conditions: PI(4)P liposomes
T10 construct: Expresses amino-terminal 98 amino acids of ARV1; made in house; host or cells: E. coli BL21 (pGEX-4T1)
Protocol: as §2, §3, §4, §5

[11] = molecular target: T11, GST-ARV1-N98 K84A (Homo sapiens, UniProt Q9H2C2, K84A); test: Liposome binding assay, site-directed mutant; conditions: PE liposomes
T11 construct: Expresses amino-terminal 98 amino acids of ARV1; made in house; host or cells: E. coli BL21 (pGEX-4T1)
Protocol: as §2, §3, §4, §5

T2 sequence (Q9H2C2 1-98 D72A): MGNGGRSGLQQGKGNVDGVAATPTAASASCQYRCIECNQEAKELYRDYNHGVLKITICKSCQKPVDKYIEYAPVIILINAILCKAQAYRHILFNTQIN
T1 sequence (Q9H2C2 1-98 E70A): as the sequence (Q9H2C2 1-98 D72A) above, with E70A, A72D counted along it
T11 sequence (Q9H2C2 1-98 K84A): as the sequence (Q9H2C2 1-98 D72A) above, with A72D, K84A counted along it

Row | Compound | change of lipid-protein interaction [1] | change of lipid-protein interaction [2] | change of lipid-protein interaction [3] | liposome binding [4] | liposome binding [5] | liposome binding [6] | change of lipid-protein interaction [7] | change of lipid-protein interaction [8] | change of lipid-protein interaction [9] | further results
1 | CCCCC/C=C\C/C=C\CCCCCCCC(=O)OC[C@H](COP(=O)(O)OCC(O)COP(=O)(O)OC[C@@H](COC(=O)CCCCCCC/C=C\C/C=C\CCCCC)OC(=O)CCCCCCC/C=C\C/C=C\CCCCC)OC(=O)CCCCCCC/C=C\C/C=C\CCCCC (some centres unmarked) [CL, cardiolipin] | weakened | weakened | more strongly |  |  |  |  |  |  | 
2 | CCCCCCCCCCCCCCCC(=O)OC[C@H](COP(=O)(O)O)OC(=O)CCCCCCCCCCCCCCC [PA, phosphatidic acid] |  |  |  | did not bind |  |  |  |  |  | 
3 | CCCCCCCC/C=C\CCCCCCCC(=O)OC[C@H](COP(=O)(O)OCC(O)CO)OC(=O)CCCCCCC/C=C\CCCCCCCC (some centres unmarked) [PG, phosphatidylglycerol] | weakened | weakened | more strongly |  | very weak | unable to bind | abolished | weakened or eliminated |  | 
4 | CCCCCCCCCCCCCCCCCC(=O)OC[C@H](COP(=O)(O)OC[C@H](N)C(=O)O)OC(=O)CCCCCCCCCCCCCCCCC [PS, phosphatidylserine] |  |  |  |  |  |  |  | enhanced | reduced interactions | 
5 | CCCCCC(=O)O[C@H](COC(=O)CCCCCNC(=O)CCCC[C@@H]1SC[C@@H]2NC(=O)N[C@@H]21)COP(=O)(O)O[C@H]1[C@H](O)[C@@H](O)[C@H](OP(=O)(O)O)[C@@H](O)[C@H]1O [reference compound] |  |  |  | did not bind | lost the ability to bind |  | increasing the interaction |  | enhanced | liposome binding [10]: lost the ability to bind
6 | phosphatidylethanolamine [PE] |  |  |  |  |  | showed binding |  |  |  | liposome binding [11]: showed binding
